Assay [1] concerns the target PLK4 (h) (Homo sapiens, UniProt O00444). In words: PLK-4 human kinase inhibition, scintillation proximity assay (SPA). It counts as biochemical. Particulars: read-out: PLK4 pIC50 (converted).
Assay [2] deals with AuroraB (h) (Homo sapiens, UniProt Q96GD4). In words: Aurora-B human kinase inhibition, SPA. Particulars: read-out: AuroraB pIC50 (converted). It is filed as biochemical. The essentials: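 AuroraB (0.5 μg/ml) phosphorylates 3 μM biotin-peptide using 0.5 μM ATP spiked with 33P-ATP in Hepes pH 7.5 with 3 mM MgCl2 and MnCl2, for 60 min at room temperature. EDTA stop solution carries streptavidin scintillant beads, and the captured radiolabel is imaged.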
Sequence of AuroraB (h) (Q96GD4 whole entry): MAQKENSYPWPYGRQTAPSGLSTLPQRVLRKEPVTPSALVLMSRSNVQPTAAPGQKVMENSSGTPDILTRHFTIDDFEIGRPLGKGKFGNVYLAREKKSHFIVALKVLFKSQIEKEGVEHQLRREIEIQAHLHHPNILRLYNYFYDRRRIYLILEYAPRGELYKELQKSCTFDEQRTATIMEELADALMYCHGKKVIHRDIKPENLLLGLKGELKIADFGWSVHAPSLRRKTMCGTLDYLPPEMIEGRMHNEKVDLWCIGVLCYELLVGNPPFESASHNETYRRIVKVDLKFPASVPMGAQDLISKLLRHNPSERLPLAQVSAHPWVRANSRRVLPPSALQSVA

Assay [3] deals with GSK3β (h) (Homo sapiens, UniProt P49841). In words: GSK-3β human kinase inhibition, SPA. To be noted: read-out: GSK3b pIC50 (converted). It is filed as biochemical. The essentials:
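Radiometric: 33P-labelled peptide captured on streptavidin SPA beads after EDTA stop and imaged on Leadseeker. Reaction ran 1 h at RT, 1 μM cold ATP with 2 nM [γ-33P]ATP, 1 μM biotin-peptide substrate, human GSK3β 1 μg/ml, pH 7.4 Tris buffer.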

The target of assay [4] is CDK1/CyclinB (h) (Homo sapiens, UniProt P06493). The assay is described as follows: CDK1/CyclinB human kinase inhibition, Invitrogen's FRET assay (Z'lyte). It counts as biochemical. To be noted: read-out: CDK1 pIC50 (converted). The essentials: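 Read-out is the 460 nm/538 nm emission ratio (390 nm excitation) after a 60 min protease development step. Before that, 10 μM ATP and 2 μM Z'lyte Ser/Thr peptide 12 react 60 min at room temperature with 0.2 μg/ml human CDK1/CyclinB in Hepes pH 7.5 containing MgCl2, EGTA and Brij-35.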
Sequence of CDK1/CyclinB (h) (P06493 whole entry): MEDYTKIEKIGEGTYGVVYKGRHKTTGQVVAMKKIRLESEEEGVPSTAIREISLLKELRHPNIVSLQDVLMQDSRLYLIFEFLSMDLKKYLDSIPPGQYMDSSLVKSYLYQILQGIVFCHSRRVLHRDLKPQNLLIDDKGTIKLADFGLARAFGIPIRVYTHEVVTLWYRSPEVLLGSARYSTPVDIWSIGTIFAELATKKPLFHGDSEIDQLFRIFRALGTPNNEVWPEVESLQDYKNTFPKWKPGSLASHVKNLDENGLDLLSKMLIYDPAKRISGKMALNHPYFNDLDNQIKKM
Sequence of CDK1/CyclinB (h) (P14635 whole entry partner): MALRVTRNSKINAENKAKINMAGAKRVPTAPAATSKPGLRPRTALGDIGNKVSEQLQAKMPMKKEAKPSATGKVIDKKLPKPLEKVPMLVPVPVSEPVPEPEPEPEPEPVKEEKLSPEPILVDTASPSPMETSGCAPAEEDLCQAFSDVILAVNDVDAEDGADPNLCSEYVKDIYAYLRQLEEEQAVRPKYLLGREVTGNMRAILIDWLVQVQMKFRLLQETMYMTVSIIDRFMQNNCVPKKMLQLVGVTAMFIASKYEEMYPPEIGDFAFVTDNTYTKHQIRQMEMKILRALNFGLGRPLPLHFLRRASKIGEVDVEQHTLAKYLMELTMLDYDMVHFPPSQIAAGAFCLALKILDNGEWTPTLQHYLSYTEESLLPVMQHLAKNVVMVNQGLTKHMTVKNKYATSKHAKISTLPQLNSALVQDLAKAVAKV

Assay [5] addresses CDK4/CyclinD1 (h) (Homo sapiens, UniProt P11802). The assay is described as follows: CDK4/CyclinD1 human kinase inhibition, SPA with GST-pRb substrate. It counts as biochemical. Particulars: read-out: CDK4 pIC50 (converted). The procedure: The in vitro inhibition of a panel of kinases was assessed using either the scintillation proximity assay (SPA) as described by Cook, N. D. et al., Advances in Experimental Medicine and Biology (1991), 36; p. 525-528.
In the SPA technology the activity of the kinase of interest is measured using an appropriate biotinylated substrate that is incubated with the aforementioned kinase protein in the presence of (^33P) radiolabeled ATP. (^33P) Phosphorylation of the substrate is subsequently measured through binding of the phosphorylated substrate to streptavidine coated beads that are based on the scintillant poly(vinyl toluene) (PVT-Beads). The scintillation intensity is detected by imaging on Leadseeker.
All kinases are pre-diluted to a 10× working concentration prior to addition into the assay. The composition of the dilution buffer for each kinase is detailed below.
In a final reaction volume of 30 μl, CDK4/CyclinD1 (h) (2.5 μg/ml) is incubated with 50 mM Hepes pH 7.5, 8 mM NaF, 20 mM MgCl2, 1 mM DTT, 40 μg/ml of substrate GST-pRb, 2 nM [γ-^33P-ATP] (6.0 μCi/ml). After incubation of 60 minutes at room temperature, the reaction is stopped by addition of 40 μL of stop solution containing 8.7 mM EDTA, 0.17% Triton X-100, 25 mg/ml Glutathion SPA Beads (GE-healthcare). The plate is centrifuged and read for Scintillation topcount analyzer.

Assay [6] concerns the target PLK1 T210D (h) (Homo sapiens, UniProt P53350, T210D). In words: PLK1 human kinase inhibition, SPA. It counts as biochemical. To be noted: read-out: PLK1 pIC50 (converted). Put shortly: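 Kinase incubated 40 min at room temperature with 0.1 μM ATP (2 nM [γ-33P]ATP tracer), 2 μM biotinylated peptide, pH 8.0 Hepes buffer with 2 mM MnCl2 and 1 mM DTT; enzyme at 0.125 ng/ml. Stopped with EDTA; 33P-peptide bound to streptavidin scintillant beads and imaged.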

For assay [7], the target named is PLK2 (h) (Homo sapiens, UniProt Q9NYY3). In words: PLK2 human kinase inhibition, SPA. It counts as biochemical. Particulars: read-out: PLK2 pIC50 (converted). The essentials: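 33P incorporation into a biotinylated peptide (2 μM) was captured on streptavidin PVT beads and imaged on Leadseeker. Enzyme at 30 μg/ml, ATP 0.1 μM with 2 nM [γ-33P]ATP, Hepes pH 8.0 with MnCl2 and DTT. Incubation was 20 min at room temperature.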
Sequence of PLK2 (h) (Q9NYY3 whole entry): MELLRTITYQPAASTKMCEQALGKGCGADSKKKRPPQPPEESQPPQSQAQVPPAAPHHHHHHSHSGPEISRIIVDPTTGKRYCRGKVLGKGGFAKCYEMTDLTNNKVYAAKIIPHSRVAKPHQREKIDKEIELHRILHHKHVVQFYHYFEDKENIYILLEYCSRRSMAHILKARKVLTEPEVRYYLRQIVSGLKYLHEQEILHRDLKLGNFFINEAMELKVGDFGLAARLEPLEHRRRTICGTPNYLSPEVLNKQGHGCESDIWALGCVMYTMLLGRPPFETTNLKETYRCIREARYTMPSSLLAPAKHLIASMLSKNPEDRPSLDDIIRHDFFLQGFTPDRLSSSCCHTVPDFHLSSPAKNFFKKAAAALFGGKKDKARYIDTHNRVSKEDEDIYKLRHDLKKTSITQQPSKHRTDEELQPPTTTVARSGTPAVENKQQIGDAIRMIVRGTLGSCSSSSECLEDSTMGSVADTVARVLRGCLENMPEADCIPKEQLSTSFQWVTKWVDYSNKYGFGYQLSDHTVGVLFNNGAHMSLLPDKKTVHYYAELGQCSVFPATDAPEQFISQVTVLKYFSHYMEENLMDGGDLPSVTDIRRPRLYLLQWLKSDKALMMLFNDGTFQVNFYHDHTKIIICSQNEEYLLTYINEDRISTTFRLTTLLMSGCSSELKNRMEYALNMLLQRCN

The target in assay [8] is PLK3 (h) (Homo sapiens, UniProt Q9H4B4). In words: PLK3 human kinase inhibition, SPA. It is filed as biochemical. Particulars: read-out: PLK3 pIC50 (converted). The essentials:
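Radiometric scintillation proximity format at pH 8.0 (Hepes, MnCl2, DTT). The 2 μM biotin-peptide substrate is phosphorylated by PLK3 (h) (30 μg/ml) using 0.1 μM ATP traced with 33P, for 20 min at room temperature. EDTA stop; phosphopeptide captured on streptavidin beads and imaged.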

Assay [9] relates to HCT-116. The assay is described as follows: Cellular proliferation assay (Alamar blue), HCT-116. It is filed as cell-based. To be noted: Homo sapiens, 10% FCS, 72 hours with compound, Alamar blue 4 h. Put shortly:
(§1)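 Growth inhibition measured after 72 h incubation with compound, following 24 h pre-culture at 37° C, 5% CO2 with 10% FCS. Resazurin-based read-out at 544/590 nm after 4 h (HCT-116), 6 h (U87-MG) or 24 h (A2780, MDA-MB-231); results relative to control.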

For assay [10], the system named is H1299. In words: Cellular proliferation assay (Alamar blue), H1299. It is filed as cell-based. To be noted: Homo sapiens, NCI-H1299; 10% FCS; 72 hours with compound; Alamar blue 4 h. Put shortly:
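This proliferation assay on NCI-H1299 cells used an initial 24-hour compound-free incubation after seeding, followed by 72 hours of compound treatment with 10% FCS serum at 37° C. and 5% (v/v) CO2. Viable cells were quantified by a 4 h Alamar blue incubation and fluorescent plate reading at 544 nm/590 nm, and effects were expressed relative to control cells.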

Assay [11] relates to MDA-MB-231. In words: Cellular proliferation assay (Alamar blue), MDA-MB-231. It is filed as cell-based. Particulars: Homo sapiens, 10% FCS, 72 hours with compound, Alamar blue 24 h, read-out: MDA/MB231 (cellular proliferation assay, Table 4) (converted). The essentials: as §1
Assay [12] deals with U87-MG. In words: Cellular proliferation assay (Alamar blue), U87-MG. It is filed as cell-based. Particulars: Homo sapiens, U-87 MG; 10% FCS; 72 hours with compound; Alamar blue 6 h; read-out: U87-MG (cellular proliferation assay, Table 4) (converted). The essentials: as §1
Assay [13] concerns A2780. In words: Cellular proliferation assay (Alamar blue), A2780. It counts as cell-based. To be noted: Homo sapiens, 10% FCS, 72 hours with compound, Alamar blue 24 h, read-out: A2780 (cellular proliferation assay, Table 4) (converted). The essentials:
as §1

Sequence of CDK4/CyclinD1 (h) (P11802 whole entry): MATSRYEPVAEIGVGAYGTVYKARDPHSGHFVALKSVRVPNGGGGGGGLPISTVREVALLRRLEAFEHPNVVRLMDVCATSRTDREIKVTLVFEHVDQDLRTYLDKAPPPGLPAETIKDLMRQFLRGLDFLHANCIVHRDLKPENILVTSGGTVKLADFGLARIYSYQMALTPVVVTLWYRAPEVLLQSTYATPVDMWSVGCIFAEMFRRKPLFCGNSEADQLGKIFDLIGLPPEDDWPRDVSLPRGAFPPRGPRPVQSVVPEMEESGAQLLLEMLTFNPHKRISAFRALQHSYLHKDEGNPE
Sequence of CDK4/CyclinD1 (h) (P24385 whole entry partner): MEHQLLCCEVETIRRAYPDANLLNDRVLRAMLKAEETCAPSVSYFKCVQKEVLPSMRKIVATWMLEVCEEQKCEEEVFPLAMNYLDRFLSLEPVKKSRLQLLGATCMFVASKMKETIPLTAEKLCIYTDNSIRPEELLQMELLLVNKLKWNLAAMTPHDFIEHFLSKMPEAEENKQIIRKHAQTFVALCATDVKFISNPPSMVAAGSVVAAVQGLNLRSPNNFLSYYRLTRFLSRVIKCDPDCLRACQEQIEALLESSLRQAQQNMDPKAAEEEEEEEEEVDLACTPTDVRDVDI
Sequence of GSK3β (h) (P49841 whole entry): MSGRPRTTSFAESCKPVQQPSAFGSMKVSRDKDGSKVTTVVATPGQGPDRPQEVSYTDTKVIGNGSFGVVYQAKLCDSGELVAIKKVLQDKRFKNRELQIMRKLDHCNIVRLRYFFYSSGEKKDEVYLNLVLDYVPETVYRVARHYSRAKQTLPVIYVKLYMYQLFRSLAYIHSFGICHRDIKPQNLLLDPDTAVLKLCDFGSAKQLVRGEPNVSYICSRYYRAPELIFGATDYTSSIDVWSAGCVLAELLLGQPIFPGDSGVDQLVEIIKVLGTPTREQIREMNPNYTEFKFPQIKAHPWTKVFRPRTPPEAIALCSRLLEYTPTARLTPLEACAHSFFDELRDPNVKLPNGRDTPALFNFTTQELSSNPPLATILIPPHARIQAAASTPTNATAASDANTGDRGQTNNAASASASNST
Sequence of PLK4 (h) (O00444 whole entry): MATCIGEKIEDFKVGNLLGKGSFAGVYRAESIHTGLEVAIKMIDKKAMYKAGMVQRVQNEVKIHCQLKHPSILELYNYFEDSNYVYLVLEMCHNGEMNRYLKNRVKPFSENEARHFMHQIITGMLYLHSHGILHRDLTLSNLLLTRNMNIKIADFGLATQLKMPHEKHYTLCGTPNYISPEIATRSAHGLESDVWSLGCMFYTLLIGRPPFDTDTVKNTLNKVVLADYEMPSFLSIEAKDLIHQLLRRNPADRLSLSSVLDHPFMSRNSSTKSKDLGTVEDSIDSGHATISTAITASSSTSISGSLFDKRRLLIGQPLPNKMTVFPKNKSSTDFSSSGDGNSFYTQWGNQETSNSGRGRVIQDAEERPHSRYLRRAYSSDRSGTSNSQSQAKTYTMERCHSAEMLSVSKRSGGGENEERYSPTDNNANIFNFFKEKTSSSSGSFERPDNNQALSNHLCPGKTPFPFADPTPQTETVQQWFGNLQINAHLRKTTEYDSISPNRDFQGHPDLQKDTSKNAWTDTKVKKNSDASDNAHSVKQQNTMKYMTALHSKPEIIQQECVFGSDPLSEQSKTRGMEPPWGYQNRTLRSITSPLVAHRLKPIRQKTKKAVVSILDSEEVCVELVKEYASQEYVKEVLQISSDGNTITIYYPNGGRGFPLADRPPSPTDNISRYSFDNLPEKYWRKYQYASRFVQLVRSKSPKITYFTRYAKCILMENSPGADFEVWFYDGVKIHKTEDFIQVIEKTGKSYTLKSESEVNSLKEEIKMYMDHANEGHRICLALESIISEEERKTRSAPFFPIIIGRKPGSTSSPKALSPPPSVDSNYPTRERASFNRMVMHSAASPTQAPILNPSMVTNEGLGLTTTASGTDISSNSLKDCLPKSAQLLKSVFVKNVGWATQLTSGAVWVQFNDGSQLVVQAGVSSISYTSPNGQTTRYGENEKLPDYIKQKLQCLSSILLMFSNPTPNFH
Sequence of PLK3 (h) (Q9H4B4 whole entry): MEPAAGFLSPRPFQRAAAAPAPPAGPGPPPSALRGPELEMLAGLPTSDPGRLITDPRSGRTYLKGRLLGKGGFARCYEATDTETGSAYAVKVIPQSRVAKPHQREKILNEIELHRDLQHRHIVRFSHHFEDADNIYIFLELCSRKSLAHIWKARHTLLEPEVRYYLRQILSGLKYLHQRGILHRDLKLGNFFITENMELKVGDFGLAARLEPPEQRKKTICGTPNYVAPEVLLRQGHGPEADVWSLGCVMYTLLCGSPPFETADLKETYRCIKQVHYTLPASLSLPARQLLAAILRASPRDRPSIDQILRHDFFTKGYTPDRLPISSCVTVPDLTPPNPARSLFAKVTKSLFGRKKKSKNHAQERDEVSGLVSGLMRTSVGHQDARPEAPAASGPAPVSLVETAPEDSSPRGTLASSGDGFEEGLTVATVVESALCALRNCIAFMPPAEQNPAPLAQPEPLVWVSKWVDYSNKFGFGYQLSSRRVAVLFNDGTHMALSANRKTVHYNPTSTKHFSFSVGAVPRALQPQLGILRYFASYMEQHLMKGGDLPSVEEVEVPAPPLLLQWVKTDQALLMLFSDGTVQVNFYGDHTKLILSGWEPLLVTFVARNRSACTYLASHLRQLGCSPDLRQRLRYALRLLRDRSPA
Sequence of PLK1 T210D (h) (P53350 whole entry T210D): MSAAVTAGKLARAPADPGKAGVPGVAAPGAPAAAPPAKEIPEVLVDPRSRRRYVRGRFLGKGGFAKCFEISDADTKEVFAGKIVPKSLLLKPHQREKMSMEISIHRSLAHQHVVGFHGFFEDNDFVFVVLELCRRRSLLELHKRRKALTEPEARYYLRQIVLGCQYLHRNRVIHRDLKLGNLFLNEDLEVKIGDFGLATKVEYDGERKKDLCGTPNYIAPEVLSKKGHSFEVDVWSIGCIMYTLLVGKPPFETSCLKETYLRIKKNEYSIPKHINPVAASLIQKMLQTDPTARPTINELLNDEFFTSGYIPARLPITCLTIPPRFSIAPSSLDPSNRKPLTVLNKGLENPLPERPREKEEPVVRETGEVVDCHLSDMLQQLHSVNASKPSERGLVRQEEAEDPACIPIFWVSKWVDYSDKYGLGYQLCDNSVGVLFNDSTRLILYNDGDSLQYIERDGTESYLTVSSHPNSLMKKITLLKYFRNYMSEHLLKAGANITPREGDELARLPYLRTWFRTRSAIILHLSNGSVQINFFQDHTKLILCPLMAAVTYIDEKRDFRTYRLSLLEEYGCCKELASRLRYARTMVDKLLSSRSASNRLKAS

For `O=C1NCCNCc2ccc(cc2)-c2ccnc(n2)Nc2ccc(N3CCOCC3)c(c2)CN2CCC1CC2` [Compound 71], the IC50 in [1] is 1.7 µM; in assay [2] it was more than 10 µM; in assay [3] it was more than 10 µM; in assay [4] it was 9.77 µM; in assay [5], more than 10 µM; in [6], more than 10 µM. Also, the IC50 in [7] is more than 10 µM; in assay [8] it was more than 10 µM; in assay [9], 5.13 µM; in [10], more than 10 µM; in assay [11], 6.76 µM.

Regarding `CN1CCCNC(=O)C2CCN(CC2)Cc2cc(Br)cc(c2)Nc2nccc(n2)-c2ccc(cc2)C1` [Compound 63], the IC50 in [1] was 1.12 µM; in assay [2] it was more than 10 µM; in assay [3] it was 1.91 µM; in [4], more than 10 µM; in [5], more than 10 µM; in [6], more than 10 µM. Besides, the IC50 is more than 10 µM in assay [7]; more than 10 µM in assay [8]; more than 10 µM in assay [9]; 5.89 µM in assay [12]; 2.69 µM in [13].

Take `COc1ccc2cc1CN(C)CCNC(=O)CN1CCN(CC1)Cc1cc(Br)cc(c1)Nc1nccc-2n1` [Compound 50]: the IC50 in [1] was 9.33 µM; in assay [2], more than 10 µM; in assay [3], 5.13 µM; in assay [4], more than 10 µM; in assay [5], more than 10 µM; in [6], more than 10 µM. Also, the IC50 in [7], in assay [8], in assay [9], in assay [12] and in assay [13] was more than 10 µM throughout.

With `CN1CCCNC(=O)CN2CCN(CC2)Cc2cc(Br)cc(c2)Nc2nccc(n2)-c2ccc(cc2)C1` [Compound 137], the IC50 is 2.09 µM in assay [1]; more than 10 µM in [2]; 2.95 µM in assay [3]; more than 10 µM in [4]; more than 10 µM in assay [5]; more than 10 µM in assay [6]. The IC50 in assay [7] is more than 10 µM; in assay [8], more than 10 µM; in assay [9], more than 10 µM; in [12], 7.94 µM; in [13] it was 3.89 µM.

Regarding `COc1ccc2cc1CN1CCC[C@H]1C(=O)NCCCc1ccc(cn1)-c1ccnc(n1)N2` [Compound 2], the IC50 in assay [1], in assay [2], in assay [3], in [4], in assay [5] and in assay [6] was more than 10 µM in each case. Further, the IC50 in [7], in [8], in assay [9] and in assay [12] was more than 10 µM in each case.

With `CN1CCCNC(=O)[C@@H]2CCCN2Cc2cc(Br)cc(c2)Nc2nccc(n2)-c2ccc(cc2)C1` [Compound 159], the IC50 in assay [1] is 1.48 µM; in assay [2], 5.75 µM; in assay [3], 6.31 µM; in assay [4], more than 10 µM; in [5], more than 10 µM; in [6] it was more than 10 µM. Further, the IC50 was more than 10 µM in assay [7]; more than 10 µM in assay [8]; more than 10 µM in [9]; 6.92 µM in assay [12]; 2.69 µM in [13].

On to `COc1ccc2cc1CN(C)CCCNC(=O)[C@@H]1CCCN1Cc1cc(Br)cc(c1)Nc1nccc-2n1` [Compound 170], for which the IC50 was 3.89 µM in [1]; 5.25 µM in [2]; more than 10 µM in assay [3]; more than 10 µM in [4]; more than 10 µM in assay [5]; more than 10 µM in assay [6]. The IC50 in [7] was more than 10 µM; in assay [8], more than 10 µM; in assay [9] it was more than 10 µM; in assay [12], 5.25 µM; in [13], 4.17 µM.

Take `COc1ccc2cc1CN(C)CCNC(=O)C1CCN(CC1)Cc1cc(Br)cc(c1)Nc1nccc-2n1` [Compound 79]: the IC50 in [1] is 5.25 µM; in assay [2], more than 10 µM; in [3], 0.832 µM; in assay [4], more than 10 µM; in assay [5] it was more than 10 µM; in assay [6], more than 10 µM. The IC50 was more than 10 µM in assay [7]; more than 10 µM in assay [8]; more than 10 µM in assay [9]; 7.59 µM in [12]; 4.79 µM in [13].

Turning to `COc1ccc2cc1CN(C)CCNC(=O)[C@@H]1CCCN1Cc1cc(Br)cc(c1)Nc1nccc-2n1` [Compound 174], the IC50 in assay [1] is approximately 6.92 µM; in assay [2], 8.71 µM; in assay [3], 4.79 µM; in assay [4] it was more than 10 µM; in assay [5], more than 10 µM; in assay [6] it was more than 10 µM. Besides, the IC50 in assay [7] was more than 10 µM; in assay [8], more than 10 µM; in [9] it was more than 10 µM; in assay [12], more than 10 µM; in assay [13], 1.66 µM.

Turning to `CN1CCCNC(=O)CN2CCN(CC2)Cc2cccc(c2)Nc2nccc(n2)-c2ccc(cc2)C1` [Compound 143], the IC50 is 3.55 µM in assay [1]; more than 10 µM in [2]; more than 3.02 µM in [3]; more than 10 µM in assay [4]; more than 10 µM in assay [5]; more than 10 µM in assay [6]. In addition, the IC50 in [7], in [8], in [9], in assay [12] and in [13] was more than 10 µM in each case.

For the molecule `O=C1NCc2cccc(c2)-c2ccnc(n2)Nc2ccc(cc2)CN[C@H]1CO` [Compound 191], the IC50 in assay [1] was more than 10 µM; in assay [2] it was more than 10 µM; in [3], 7.94 µM; in assay [4], more than 10 µM; in [5] it was 7.41 µM; in assay [6] it was more than 10 µM. Also, the IC50 in [7] and in assay [8] was more than 10 µM throughout.

These data come from patent US8609836B2, “4-aryl-2-anilino-pyrimidines” (Janssen Pharmaceutica NV, priority 2008, dated 2013).
